| SMILES | melting point |
| --- | --- |
| O=C(CCC1C2CC3CC(C2)CC1C3)N1C(=O)OCC1Cc1ccccc1 (stereo not drawn) | 82 to 83 °C |
| O=C1C(=CO)c2ccccc2N1c1ccccc1 | 192 to 195 °C |
| CN1C(=O)C(=O)c2cccnc21 | 162 to 163 °C |
| COc1cc(CCCC(=O)OC(C)C)ccc1OCc1nc(-c2ccco2)oc1C | 45 to 46 °C |
| Cc1cc(-c2c(-c3ccc(S(C)(=O)=O)cc3)cnn(-c3ccc(F)c(F)c3)c2=O)ccc1F | 166 to 168 °C |
| O=C(O)CCCCc1nn(-c2cccc(C(F)(F)F)c2)c2c1CCCC2 | 105 °C |
| CC1Oc2ccc(C3=NNC(=O)CC3)cc2NC1=O (stereo not drawn) | 275 to 276 °C |
| CCN(CC)CCOc1ccc2cc3ccc(OCCN(CC)CC)c(CO)c3nc2c1CO | 95 to 96 °C |
| Cc1nc(S(=O)(=O)Cc2ccc(Cl)cc2)nc2c1CCCC2 | 151 °C |
| CN(C)C1CCN(c2cc3ccc(Br)cc3c(=O)[nH]2)CC1 | 227 to 228 °C |
| CCCCCCCCCCCCCCCNC(=O)OCCOCCOC(=O)N(Cc1ccccn1)C(=O)OCC | 52 to 53 °C |
| COc1ccc(C=O)cc1OC1CC2CCC1C2 (stereo not drawn) | 75.5 to 79.5 °C |
| C[C@]1(COc2ccc(N3CCN(Cc4ccc(OC(F)(F)F)cc4)CC3)cc2)Cn2cc([N+](=O)[O-])nc2O1 | 214 to 217 °C |
| Cc1cc(C)nc(NC(=O)NS(=O)(=O)c2ccccc2OS(=O)(=O)N(C)C)n1 | 195 to 196 °C |
| Cc1cccnc1C(=O)NC(C)(C)C | 56 to 58 °C |
| C=CCOC(=O)C1=C2CCSC[C@@H]2[C@@H]2/C(=C\C)C(=O)N12 | 195 to 225 °C |
| CCCc1c(OCCCCCCc2ccc(C(C)C)c(OC)c2OC)ccc(C(=O)O)c1O | 106 to 108 °C |
| Cc1cccc(NC(=O)NCC(=O)N(CC(=O)OC(C)(C)C)c2ccc(Cl)cc2)c1 | 125 °C |
| O=C(C=CCN1CCOCC1)Nc1cc2c(Nc3ccc(F)c(Cl)c3)ncnc2cc1OC1CCCC1 | 143 °C |

| SMILES | melting point |
| --- | --- |
| C[C@H](NC(=O)c1ccccc1)C(=O)N[C@@H](C)C(=O)Nc1ccccc1 | 245 to 248 °C |
| CCn1ncc2c1ncc1c(=O)n3nc(C)cc3n(C)c12 | 306 to 307 °C |
| O=C(O)c1ccc(NCC(O)C(O)C(O)C(O)CO)cc1 (stereo not drawn) | 111 to 112 °C |
| N#Cc1ncn2c1N(C(=O)CN1CCN(Cc3ccccc3)CC1)CC=C2c1cccc(C(F)(F)F)c1 | 167 to 169 °C |
| CNC(=O)c1cn(CCO)nc1[N+](=O)[O-] | 138 to 140 °C |
| CC(C)(C)OC(=O)C(C1NC(C(=O)OCc2ccccc2)C2(CCN(c3ccccc3)CC2)S1)N1C(=O)c2ccccc2C1=O (stereo not drawn) | 184 to 185 °C |
| C[C@@H](S[C@H]1CC[C@H](/C=C/c2ccc(Cl)cc2)CC1)[C@](O)(Cn1cncn1)c1ccc(F)cc1F | 64 to 66 °C |
| COc1cc(C)c(C(=O)c2c(OC)ncc(Cl)c2C)c(OC)c1OC | 92 to 94 °C |
| C=CCOC(=O)c1cccc(NC(=O)NCNC(=O)c2ccccc2C(=O)c2ccccc2)c1 | 68 to 71 °C |
| Cc1cccc(NC(=O)NCC(=O)N(CC(=O)N2CCCc3ccccc32)c2ccccc2)c1 | 167 °C |
| CCCCCCCCCCCCc1nnn(C(CCCC)C(=O)Nc2c(OC)cc(OC)cc2OC)n1 (stereo not drawn) | 152 to 154 °C |
| Cc1nc(-c2c(F)cccc2Cl)n[nH]1 | 232 to 233 °C |
| COc1cc2c(cc1OC)C(N(CC(=O)O)C(=O)C(CSC(C)=O)CSC(C)=O)CC2 (stereo not drawn) | 140 to 143 °C |
| CN(C)c1cc(CC(C#N)=CNc2ccccc2)cc(N(C)C)c1N1CCCCC1 | 200 to 202 °C |
| O=C(Nc1ccc(I)cc1)c1ccncc1 | 245 to 250 °C |
| Cn1nc(-c2cnc3[nH]cc(C(=O)NC4CCCCC4)c3n2)c2ccc(Cl)cc21 | 321 to 323 °C |
| C=CCN(CC=C)c1nc(NC(=O)c2c(Cl)cccc2Cl)n2oc(=O)nc2n1 | 133 to 135 °C |
| Cc1ccc(C2OCC(C)(CO)CO2)cc1 (stereo not drawn) | 104 to 106 °C |
| COc1cccc(NC(=O)C(F)(F)F)c1 | 115 °C |
